Assay [1] has as its target T1, EcPDF (Escherichia coli, UniProt P0A6K3).
T1 construct: made in house
The assay is described as follows: NMR titrations on peptide deformylase. It counts as binding. The settings on record: probed by NMR titrations.

The subject of assay [2] is B. subtilis-MHY101. The assay is described as follows: B. subtilis MIC. The settings on record: Bacillus subtilis.
Assay [3] has as its system Arabidopsis thaliana (ecotype WS4). The assay is described as follows: Growth inhibition of Arabidopsis thaliana. It counts as in vivo.
The target of assay [4] is T2, AtPDF1A (Arabidopsis thaliana, UniProt Q9FV53).
T2 construct: made in house
The assay is described as follows: PDF inhibition assay coupled to formate dehydrogenase (in vitro assay). It counts as biochemical. The note with it: mitochondrial PDF, 25 nM in assay; 10 % dimethyl sulfoxide; (TB) = tight binding.

The test system of assay [5] is B. subtilis-MHD101. The assay is described as follows: B. subtilis MIC. The settings on record: Bacillus subtilis.
For assay [6], the system named is B. subtilis-168. Description: B. subtilis MIC.
Assay [7] relates to B. subtilis-M03482. Description: B. subtilis MIC. The settings on record: Bacillus subtilis.
Assay [8] deals with T3, EcPDF1B (Escherichia coli, UniProt P0A6K3).
T3 construct: made in house
Description: PDF inhibition assay coupled to formate dehydrogenase (in vitro assay). Type of assay: biochemical.

The target in assay [9] is T4, BsPDF2 (Geobacillus stearothermophilus, UniProt O31410).
T4 construct: made in house
The description is as above. Type of assay: biochemical, Bacillus stearothermophilus.

Assay [10] has as its system E. coli-CAG1284. The assay is described as follows: E. coli MIC, tolC mutant strain. The settings on record: Escherichia coli.
The test system of assay [11] is E. coli-JM101Tr. The assay is described as follows: E. coli MIC, WT strain. The settings on record: Escherichia coli, WT strain JM101Tr.
The mark [12] stands for this setting: nickel-bound enzyme, 40 nM in assay, 10 % dimethyl sulfoxide, (TB) = tight binding, read-out: IC50.
The mark [13] stands for this setting: nickel-bound enzyme, 20 nM in assay, 10 % dimethyl sulfoxide, (TB) = tight binding, read-out: IC50.
Setting [14] is: WT context (strains 168 and MO3482).

Values after ≈ are worked out from the molar mass of the structure shown. Like-named read-outs stand apart in the source and are kept apart here.

T3 sequence (P0A6K3 whole entry): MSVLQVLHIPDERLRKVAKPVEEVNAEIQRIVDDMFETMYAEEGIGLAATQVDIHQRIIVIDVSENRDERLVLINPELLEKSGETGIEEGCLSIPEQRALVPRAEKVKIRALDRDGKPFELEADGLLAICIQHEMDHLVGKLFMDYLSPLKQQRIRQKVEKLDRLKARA
T4 sequence (O31410 whole entry): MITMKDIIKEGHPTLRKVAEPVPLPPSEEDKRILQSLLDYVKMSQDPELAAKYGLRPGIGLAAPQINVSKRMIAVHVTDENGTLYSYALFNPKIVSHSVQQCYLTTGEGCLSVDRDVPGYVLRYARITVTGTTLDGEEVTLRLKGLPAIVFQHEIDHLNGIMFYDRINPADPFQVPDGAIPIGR
T2 sequence (Q9FV53 61-269): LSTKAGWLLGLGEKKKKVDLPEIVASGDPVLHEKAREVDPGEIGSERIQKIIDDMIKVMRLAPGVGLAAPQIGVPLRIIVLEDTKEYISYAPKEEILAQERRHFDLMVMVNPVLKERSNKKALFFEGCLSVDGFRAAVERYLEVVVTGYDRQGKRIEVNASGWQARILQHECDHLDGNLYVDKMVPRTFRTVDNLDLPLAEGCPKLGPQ
T1 sequence (P0A6K3 1-148): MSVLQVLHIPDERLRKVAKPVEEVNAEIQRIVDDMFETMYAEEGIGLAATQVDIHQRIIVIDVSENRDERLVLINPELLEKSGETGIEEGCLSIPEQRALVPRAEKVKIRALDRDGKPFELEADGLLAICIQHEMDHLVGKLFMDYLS

Regarding `Brc1ccc2[nH]ccc2c1` [5-bromoindole], the binding constant result in [1] was “in the millimolar range”.
The MIC is the lowest concentration found to suppress growth. Read a high MIC as weaker potency. A word on the IC50: it is the concentration needed to halve the response being measured. For `O=C(Cc1cn(C(=O)OCc2ccccc2)c2ccc(Br)cc12)NO` [Compound 2, 5-bromo-3-hydroxycarbamoylmethyl-indole-1-carboxylic acid benzyl ester], the minimal inhibitory concentration (MIC) was determined as 6 µg/mL (≈ 14.9 µM) in assay [2]; 12 µg/mL (≈ 29.8 µM) in assay [5]; 20 µg/mL (≈ 49.6 µM) in [6] (Bacillus subtilis); 20 µg/mL (≈ 49.6 µM) in assay [6] (strain 168 (WT context)); 16 µg/mL (≈ 39.7 µM) in assay [7]. Also, the “concentration at which growth inhibition is observed” value in assay [3] is listed as “higher than 50 µM”. Moreover, the values for the IC50 in [4], in assay [8] (setting [12]) and in assay [9] (setting [13]) were 14000 nM, 26 nM and less than 27 nM, respectively.
For `CC(C)(C)OC(=O)NC(CC(=O)NO)Cc1ccccc1` (stereo not shown) [RAS270], the minimal inhibitory concentration (MIC) is 32 µg/mL (≈ 109 µM) in assay [10]; more than 300 µg/mL in assay [11]; 8 µg/mL (≈ 27.2 µM) in assay [2]; more than 300 µg/mL in assay [5]; more than 300 µg/mL in assay [6] (Bacillus subtilis); “no antibiotic properties” in assay [6] (setting [14]). Also, the MIC in assay [7] was more than 300 µg/mL. In addition, the figures for the half-maximal inhibitory concentration (IC50) in [4], in assay [8] and in [9] were 83000 nM, 44 nM and 300 nM, respectively.
Take `CC(C)(C)OC(=O)NC(Cc1ccccc1)CN(O)C=O` (stereo not shown) [RAS358]: the minimal inhibitory concentration (MIC) in assay [2] is 9 µg/mL (≈ 30.6 µM); in assay [5], more than 300 µg/mL; in assay [6] (Bacillus subtilis) it was more than 300 µg/mL; in assay [6] (setting [14]), “no antibiotic properties”; in assay [7], more than 300 µg/mL. The half-inhibitory concentration (IC50) in [4] was determined as 150000 nM; in assay [8] (setting [12]) it was 50 nM; in assay [9] (setting [13]), 400 nM.
